Test results from ChEMBL document CHEMBL1201862, “PubChem BioAssay data set” (2004).
“And” between values parts separate entries of the source, which are not always exact repeats. Equal values may be shown once.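 96-well plates; 48 h exposure; 5 concentrations. Endpoints by linear interpolation between flanking doses. Not reached: highest tested concentration assigned. GI50: concentration for 50% inhibition of growth.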 The source made the active and inactive calls. No stated cut-off is given here; in the data, active = GI50 up to about 1.1 µM and inactive = higher.

Columns and labels:
Assay in all cases: NCI-60 cell line screen, 48 h
MDA-MB-435 = system: MDA-MB-435
MCF7 = system: MCF7
HOP-92 = system: HOP-92
SF-295 = system: SF-295
SNB-19 = system: SNB-19
OVCAR-5 = system: OVCAR-5
NCI-H460 = system: NCI-H460
HL-60 = system: HL-60
OVCAR-4 = system: OVCAR-4
CAKI-1 = system: CAKI-1
NCI-H23 = system: NCI-H23
PC-3 = system: PC-3
HT-29 = system: HT-29
UACC-62 = system: UACC-62
KM12 = system: KM12
KM-20L2 = system: KM-20L2
SNB-78 = system: SNB-78
SW-620 = system: SW-620
ACHN = system: ACHN
UACC-257 = system: UACC-257

Measured: GI50

CC1CCC2(C(=O)O)CCC3(C)C(=CCC4C5(C)CCC(O)C(C)(C)C5CCC43C)C2C1C (stereo not given)
inactive: MDA-MB-435 30.1 µM | MCF7 12.7 µM and 22 µM | HOP-92 18.4 µM and 11.9 µM | SF-295 3.3 µM and 3.22 µM | SNB-19 10.3 µM | OVCAR-5 11.1 µM and 10.6 µM | NCI-H460 12.4 µM | HL-60 3.05 µM and 2.64 µM | OVCAR-4 17.3 µM and 13.3 µM | CAKI-1 6 µM and 3.7 µM | NCI-H23 18.5 µM and 11.9 µM | PC-3 15.8 µM | HT-29 20.7 µM and 11 µM | UACC-62 19.6 µM and 10.8 µM | KM12 6.62 µM and 9.29 µM | KM-20L2 8.24 µM | SNB-78 13.3 µM

O=[N+]([O-])c1ccc2c(Nc3ccccc3-c3ccccc3Nc3c4ccccc4nc4cc([N+](=O)[O-])ccc34)c3ccccc3nc2c1
inactive: SW-620 1.69 µM | ACHN 3.17 µM | MDA-MB-435 1.34 µM | MCF7 4.18 µM | HOP-92 3.44 µM | SF-295 5.4 µM | SNB-19 4.32 µM | OVCAR-5 25.9 µM | NCI-H460 2.5 µM | HL-60 2.68 µM | OVCAR-4 10 µM | CAKI-1 6.46 µM | NCI-H23 10.8 µM | PC-3 1.44 µM | HT-29 4.14 µM | UACC-62 3.16 µM | UACC-257 8.05 µM | KM12 2.86 µM | KM-20L2 5.32 µM | SNB-78 > 100 µM

NC(CCc1nc(-c2ccc(Cl)cc2)cs1)C(=O)O (stereo not given)
inactive: SW-620 > 100 µM | ACHN > 100 µM | HOP-92 > 73.5 µM | SF-295 > 100 µM | SNB-19 > 100 µM | OVCAR-5 > 100 µM | NCI-H460 > 100 µM | HL-60 > 100 µM | OVCAR-4 > 100 µM | CAKI-1 > 100 µM | NCI-H23 > 100 µM | HT-29 > 100 µM | UACC-62 > 100 µM | UACC-257 > 100 µM | KM12 > 100 µM | KM-20L2 > 100 µM | SNB-78 > 100 µM

NC1(C(=O)O)CCC(C(=O)O)CC1 (stereo not given)
inactive: SW-620 > 100 µM | ACHN > 100 µM | HOP-92 > 100 µM | SF-295 > 100 µM | SNB-19 > 100 µM | OVCAR-5 > 100 µM | NCI-H460 > 100 µM | HL-60 > 100 µM | OVCAR-4 > 100 µM | CAKI-1 > 100 µM | NCI-H23 > 100 µM | HT-29 > 100 µM | UACC-62 > 100 µM | UACC-257 > 100 µM | KM12 > 100 µM | KM-20L2 > 100 µM | SNB-78 > 100 µM

CC(=O)CCn1[nH]c(=O)c(Cl)c(Cl)c1=O
inactive: SW-620 15 µM | ACHN > 100 µM | HOP-92 > 100 µM | SF-295 > 100 µM | SNB-19 15.3 µM | OVCAR-5 > 100 µM | NCI-H460 > 100 µM | HL-60 > 100 µM | OVCAR-4 > 100 µM | CAKI-1 14.3 µM | NCI-H23 > 100 µM | HT-29 > 100 µM | UACC-62 > 100 µM | UACC-257 > 100 µM | KM12 > 100 µM | KM-20L2 > 100 µM | SNB-78 > 100 µM

Cc1cc(N(CCC#N)CCC#N)ccc1/N=N/c1ccc([N+](=O)[O-])cc1
inactive: SW-620 > 10 µM | ACHN 95.9 µM | HOP-92 55 µM | SF-295 56.4 µM | SNB-19 22 µM | OVCAR-5 > 100 µM | NCI-H460 39.4 µM | HL-60 > 100 µM | OVCAR-4 19.7 µM | CAKI-1 > 100 µM | NCI-H23 43 µM | HT-29 > 100 µM | UACC-62 > 10 µM | UACC-257 > 100 µM | KM12 > 100 µM | KM-20L2 > 100 µM | SNB-78 34.1 µM
